Data published in publication PMC8703450, “New Heterocyclic Combretastatin A-4 Analogs: Synthesis and Biological Activity of Styryl-2(3H)-benzothiazolones” (Pharmaceuticals, 2021).

Key:
Format in all cases: cell-based, human
[1] = test system: colchicine binding site of β-tubulin; experiment: Colchicine-binding site assay (EBI competition) in EA.hy926 cells; conditions: then 100 µM EBI 2 h, Western blot
Protocol: N,N′-ethylene-bis(iodoacetamide) (abcam, ab144980) was dissolved in DMSO to a final concentration of 50 mM. EA.hy926 cells were seeded at density of 1 × 10^5 cells/mL and incubated overnight. […] Cells were lysed with Laemmli buffer and subjected to Western blot analysis for β-tubulin [66, 67]. The detailed Western blot method is as shown above.

[2] = test system: α,β-tubulin; experiment: In vitro quantification of polymeric vs. soluble tubulin fractions in EA.hy926 cells; conditions: for soluble vs. polymerized tubulin ratio: EA.hy926, 1 µM, 6 h, DMSO control 2.33 ± 0.14
Protocol: To assess the early effects on the microtubule cytoskeleton in vitro, EA.hy926 cells were cultured for 24 h in 6-cm dishes (3 × 10^5 cells). They were exposed to […] (control), 1 μM CA-4, paclitaxel, or increasing concentrations of 26Z (50, 100, 250, 2500, 10,000 nM) for 6 h. Cells were washed with PBS and lysed directly in the dishes with hypotonic lysis buffer (20 mM Tris-HCl, 1 mM MgCl2, 2 mM EGTA, 0.5% Triton X-100, glycerol 10%, pH 6.8), supplemented with protease inhibitors (2 μg/mL leupeptin, 2 μg/mL pepstatin, 0.4 mM Na vanadate, 0.5 mM PMSF, 1 mM DTT), for 3 min at 30 °C. The soluble fraction was immediately collected, mixed with 5× sample buffer, and boiled at 95 °C for 5 min. The polymerized fraction was collected directly from the culture dish following 10 min of incubation at room temperature with 1× sample buffer.
For the concentration-dependent assay, the cells were harvested by scraping and centrifuged at 1000 g for 5 min, and then lysed with the hypotonic cell lysis buffer for 10 min at room temperature. Tubulin fractions were obtained by centrifugation at 12,000 × g for 10 min.
Equal volumes of the samples were subjected to 10% SDS-PAGE followed by western blotting. Detection of β-tubulin content was accomplished with an anti-β-tubulin mouse monoclonal antibody (sc-101527, Santa Cruz Biotechnology).

[3] = test system: EA.hy926 cells; experiment: MTT cytotoxicity / growth inhibition assay, EA.hy926; conditions: Homo sapiens; for IC50: EA.hy 926, 72 h of treatment
Protocol: The endothelial cell line (EA.hy926) was kindly provided by Dr. C-J.S. Edgell—University of North Carolina, USA. Cells were cultured in 4.5 g/L D-Glucose DMEM/F12 medium, supplemented with 10% fetal bovine serum (FBS, Cytogen GmBH, Greven, Germany) and 100 U/mL penicillin and streptomycin (Lonza BioWhitaker, Verviers, Belgium). The other cell lines used are described in Table S3.1. Cell cultures were maintained in an incubator at 37 °C with 95% humidity and 5% CO2 and were routinely found free of mycoplasma.
All tested compounds were dissolved in DMSO at 25 mM initial concentration and diluted with medium to obtain the working concentrations (0.01 nM–250 µM). Serial drug dilutions were prepared in medium immediately before each experiment. The DMSO working concentration in the medium was […]. For the MTT assay, cells were seeded into 96-well microtitre plates at a density of 1 × 10^4 in 100 µL complete medium per well. They were further incubated for 24 h, followed by treatment with CA-4 analogs up to 72 h. Cell viability was determined using the MTT assay. Ten µL of MTT solution (5 mg/mL) was added to each well and further incubated for 3 h at 37 °C. To dissolve the formazan product, 100 µL/well of 99.5% isopropanol was added. Cell viability was determined by measuring absorbance at 550/630 nm using a DTX880 plate reader (Beckman Coulter, USA). Results, expressed as concentrations that inhibit 20% (IC20), 50% (IC50), and 80% (IC80) of cell growth, were calculated using GraphPad Prism 8.0.1.

[4] = test system: EA.hy926 cells; experiment: Cell cycle analysis (propidium iodide, flow cytometry); conditions: 300 nM 26Z or 10 nM CA-4
Protocol: A total of 5 × 10^5 cells was treated with 26Z and CA-4 for time-response assays. Cells were collected by scraping, pelleted, washed with cold PBS (1×), and fixed overnight at 4 °C with 1 mL of ice-cold methanol–acetone (1:1), added dropwise to the pellet while vortexing. Pellets were resuspended and washed in 500 μL of PBS (1×), then permeabilized with a Triton X-100 (0.05–0.1%)/DNA extraction buffer (0.2 M Na2HPO4, 0.04 M citric acid, pH 7.8) in a 1:1 ratio for 15 min. After that, pelleted cells were treated with RNAse A (20 μg/mL) and labeled with 10 μg/mL of propidium iodide (Sigma-Aldrich) by incubation at 37 °C for at least 30 min, protected from light. DNA content was measured using a FACS Calibur flow cytometer ([…], NJ, USA), and cell cycle analysis was performed with FlowJo software (version 8.7). At least 10,000 events were recorded for each sample measured in duplicate.

[5] = test system: EA.hy926 cells; experiment: Immunofluorescence of mitotic spindles (α-tubulin); conditions: 24 h
Protocol: Indirect immunofluorescence was used to examine the effect of 26Z on α-tubulin in EA.hy 926 cells. A total of 1 × 10^4 cells grown on coverslips were washed with PBS and fixed with 3.7% buffered paraformaldehyde. Single fluorescence cell labeling was performed, as described by Apostolova et al., with a primary chicken antibody against α-tubulin (ab89984, Abcam) for 2 h. Cells were washed three times with PBS for 5 min and incubated for 60 min with a goat anti-chicken secondary antibody labeled with AlexaFluor-488 (ab150173, Abcam). F-actin was detected using AlexaFluor-568 Phalloidin (Invitrogen, MA, USA). Following three washes with PBS and two in water, the slides were mounted in UltraCruz fluorescence mounting medium with DAPI (sc-24941, Santa Cruz Biotechnology, USA). Fluorescence microscopy was performed with a Carl Zeiss Axiovert 200 M Inverted Microscope and Andor Dragonfly 505 Confocal Microscope equipped with an iXon Ultra 888 EMCCD camera (Andor, Oxford Instruments, Belfast, Northern Irelands).

COc1ccc(/C=C\c2cc(OC)c(OC)c(OC)c2)cc1O [CA-4, Combretastatin A-4]
tubulin EBI-adduct formation ([1]; EA.hy926, 10 μM compound 2 h): inhibited | soluble vs. polymerized tubulin ratio [2]: 3.3 ± 0.61 | IC50 [3]: 3.3 ± 0.2 nM

COc1cc(/C=C\c2ccc3c(c2)sc(=O)n3C)cc(OC)c1OC [Compound 26Z, (Z)-3-methyl-6-(3,4,5-trimethoxystyryl)-2(3H)-benzothiazolone]
tubulin EBI-adduct formation ([1]; EA.hy926, 25 µM compound 2 h): inhibited | soluble vs. polymerized tubulin ratio [2]: 2.74 ± 0.43 | concentration above which the depolymerizing effect is clearly visible ([2]; EA.hy926, 6 h, 0.01–10 μM): higher than 0.05 μM | cells in G2/M ([4]; EA.hy926, 4 h): ~ 35% | cells in G2/M ([4]; EA.hy926, 24 h): ~ 78% | number of spindle poles (multipolarity) ([5]; EA.hy926, IC50 (130 nM)): 3.9 ± 0.99 | number of spindle poles (multipolarity) ([5]; EA.hy926, IC80 (300 nM)): 8.8 ± 2.3 | IC50 [3]: 130 ± 10 nM | IC20 ([3]; EA.hy 926, concentration that inhibits 20% of cell growth): 40 ± 10 nM | IC80 ([3]; EA.hy 926, concentration that inhibits 80% of cell growth): 300 ± 40 nM
